Earlier results on one molecule are cited in patent publication US20090233947A1, “2,3-Substituted fused bicyclic pyrimidin-4(3H)-ones which modulating the function of the vanilloid -1 receptor (VR1)” (priority 2005, published 2009).

The series deals with VR1 (Rattus norvegicus, UniProt O35433). As to conditions: Wahl et al., Mol. Pharmacol., 59:9, 2001.
VR1, sequence (O35433 whole entry): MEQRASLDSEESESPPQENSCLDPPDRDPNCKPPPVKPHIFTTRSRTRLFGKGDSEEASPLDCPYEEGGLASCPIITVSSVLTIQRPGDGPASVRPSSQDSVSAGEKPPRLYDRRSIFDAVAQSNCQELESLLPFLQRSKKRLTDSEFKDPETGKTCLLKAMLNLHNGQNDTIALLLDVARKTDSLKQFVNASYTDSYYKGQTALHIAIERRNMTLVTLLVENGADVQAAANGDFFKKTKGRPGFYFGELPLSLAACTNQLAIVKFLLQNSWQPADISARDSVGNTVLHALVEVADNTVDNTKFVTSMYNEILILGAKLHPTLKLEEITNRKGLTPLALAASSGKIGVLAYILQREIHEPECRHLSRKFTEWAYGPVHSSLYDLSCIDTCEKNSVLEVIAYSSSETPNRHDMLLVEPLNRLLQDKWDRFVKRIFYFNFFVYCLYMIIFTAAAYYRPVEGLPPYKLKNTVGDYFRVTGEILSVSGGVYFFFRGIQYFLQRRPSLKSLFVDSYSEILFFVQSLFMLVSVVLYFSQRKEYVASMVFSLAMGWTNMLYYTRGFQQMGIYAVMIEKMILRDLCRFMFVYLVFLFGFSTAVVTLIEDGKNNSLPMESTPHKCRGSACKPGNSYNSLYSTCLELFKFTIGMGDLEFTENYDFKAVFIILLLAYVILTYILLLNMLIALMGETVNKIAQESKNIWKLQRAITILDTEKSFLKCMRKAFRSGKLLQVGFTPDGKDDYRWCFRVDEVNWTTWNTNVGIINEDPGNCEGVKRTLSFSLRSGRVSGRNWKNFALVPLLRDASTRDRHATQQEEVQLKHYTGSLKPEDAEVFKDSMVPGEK

For the molecule `C=C(C)[C@]12C[C@@H](C)[C@@]34O[C@](Cc5ccccc5)(O[C@@H]1[C@@H]3C=C(COC(=O)Cc1cc(I)c(O)c(OC)c1)C[C@]1(O)C(=O)C(C)=C[C@@H]41)O2` [iodo-resiniferatoxin], the “antagonist of VR1” value is recorded as “nanomolar antagonist”.
